From PubChem BioAssay AID1259407 (Chemical Carcinogenesis Research Information System (CCRIS), 2018)
Active and inactive are the calls of the source. No rule for the calls is given here.

Tested on: CCRIS mutagenicity, Ames/micronucleus/aberration tests
Assay: CCRIS mutagenicity studies

Structure (SMILES): COC(=O)Nc1nc2ccccc2[nH]1
- mutagenic call (End Point: IN VITRO CHROMOSOMAL ABERRATIONS, Test System: HUMAN PERIPHERAL LYMPHOCYTES, Metabolic Activation: RAT, LIVER, S-9, AROCLOR 1254): inactive; negative
- mutagenic call (End Point: IN VITRO MICRONUCLEUS, Test System: HUMAN PERIPHERAL LYMPHOCYTES, Metabolic Activation: NONE): active; positive
- mutagenic call (End Point: IN VITRO MICRONUCLEUS, Test System: V79 CELLS, Metabolic Activation: NONE): active; positive
- mutagenic call (End Point: In vitro micronucleus, Test System: Mouse lymphoma L5178Y cells, Metabolic Activation: None): active; positive
- mutagenic call (End Point: In vivo micronucleus, Test System: Micronucleated, binucleated and multinucleated hepatocytes, Species: Mouse, Strain/Sex: ddY/Male, Route: Oral): active; positive for micronucleated, binucleated and multinucleated cells when agent adm
- mutagenic call (Test System: AMES SALMONELLA TYPHIMURIUM, Strain/Indicator: TA97, Metabolic Activation: NONE, Method: PREINCUBATION): inactive; negative
- mutagenic call (Test System: AMES SALMONELLA TYPHIMURIUM, Strain/Indicator: TA97, Metabolic Activation: NONE, Method: STANDARD PLATE): inactive; negative
- mutagenic call (Test System: AMES SALMONELLA TYPHIMURIUM, Strain/Indicator: TA97, Metabolic Activation: RAT, LIVER, S-9, PHENOBARBITAL AND BETA-NAPHTHOFLAVONE, Method: PREINCUBATION): active; positive
- mutagenic call (Test System: AMES SALMONELLA TYPHIMURIUM, Strain/Indicator: TA97, Metabolic Activation: RAT, LIVER, S-9, PHENOBARBITAL AND BETA-NAPHTHOFLAVONE, Method: STANDARD PLATE): inactive; negative
- mutagenic call (Test System: AMES SALMONELLA TYPHIMURIUM, Strain/Indicator: TA97A, Metabolic Activation: NONE, Method: STANDARD PLATE): inactive; negative
- mutagenic call (Test System: AMES SALMONELLA TYPHIMURIUM, Strain/Indicator: TA97A, Metabolic Activation: PLANT, HOMOGENATE, S-14, Method: STANDARD PLATE): inactive; negative
- mutagenic call (Test System: AMES SALMONELLA TYPHIMURIUM, Strain/Indicator: TA97A, Metabolic Activation: S-9, Method: STANDARD PLATE): inactive; negative
- mutagenic call (Test System: AMES SALMONELLA TYPHIMURIUM, Strain/Indicator: TA98, Metabolic Activation: HAMSTER, LIVER, S-9, AROCLOR 1254 (10%), Method: PREINCUBATION): active; positive
- mutagenic call (Test System: AMES SALMONELLA TYPHIMURIUM, Strain/Indicator: TA98, Metabolic Activation: NONE, Method: PREINCUBATION): inactive; negative
- mutagenic call (Test System: AMES SALMONELLA TYPHIMURIUM, Strain/Indicator: TA98, Metabolic Activation: PLANT, HOMOGENATE, S-14, Method: STANDARD PLATE): inactive; negative
- mutagenic call (Test System: AMES SALMONELLA TYPHIMURIUM, Strain/Indicator: TA98, Metabolic Activation: RAT, LIVER, S-9, AROCLOR 1254 (10%), Method: PREINCUBATION): active; positive
- mutagenic call (Test System: AMES SALMONELLA TYPHIMURIUM, Strain/Indicator: TA98, Metabolic Activation: RAT, LIVER, S-9, PHENOBARBITAL AND BETA-NAPHTHOFLAVONE, Method: PREINCUBATION): active; positive
- mutagenic call (Test System: AMES SALMONELLA TYPHIMURIUM, Strain/Indicator: TA98, Metabolic Activation: RAT, LIVER, S-9, PHENOBARBITAL AND BETA-NAPHTHOFLAVONE, Method: STANDARD PLATE): active; positive
- mutagenic call (Test System: AMES SALMONELLA TYPHIMURIUM, Strain/Indicator: TA98, Metabolic Activation: RAT, LIVER, S-9, PHENOBARBITONE, Method: PREINCUBATION): inactive; negative
- mutagenic call (Test System: AMES SALMONELLA TYPHIMURIUM, Strain/Indicator: TA98, Metabolic Activation: S-9, Method: STANDARD PLATE): inactive; negative
- mutagenic call (Test System: AMES SALMONELLA TYPHIMURIUM, Strain/Indicator: TA100, Metabolic Activation: HAMSTER, LIVER, S-9, AROCLOR 1254 (10%), Method: PREINCUBATION): inactive; negative
- mutagenic call (Test System: AMES SALMONELLA TYPHIMURIUM, Strain/Indicator: TA100, Metabolic Activation: NONE, Method: PREINCUBATION): inactive; negative
- mutagenic call (Test System: AMES SALMONELLA TYPHIMURIUM, Strain/Indicator: TA100, Metabolic Activation: PLANT, HOMOGENATE, S-14, Method: STANDARD PLATE): inactive; negative
- mutagenic call (Test System: AMES SALMONELLA TYPHIMURIUM, Strain/Indicator: TA100, Metabolic Activation: RAT, LIVER, S-9, AROCLOR 1254 (10%), Method: PREINCUBATION): inactive; negative
- mutagenic call (Test System: AMES SALMONELLA TYPHIMURIUM, Strain/Indicator: TA100, Metabolic Activation: RAT, LIVER, S-9, AROCLOR 1254, Method: STANDARD PLATE): inactive; negative
- mutagenic call (Test System: AMES SALMONELLA TYPHIMURIUM, Strain/Indicator: TA100, Metabolic Activation: RAT, LIVER, S-9, PHENOBARBITAL AND BETA-NAPHTHOFLAVONE, Method: PREINCUBATION): inactive; negative
- mutagenic call (Test System: AMES SALMONELLA TYPHIMURIUM, Strain/Indicator: TA100, Metabolic Activation: RAT, LIVER, S-9, PHENOBARBITAL AND BETA-NAPHTHOFLAVONE, Method: STANDARD PLATE): inactive; negative
- mutagenic call (Test System: AMES SALMONELLA TYPHIMURIUM, Strain/Indicator: TA100, Metabolic Activation: RAT, LIVER, S-9, PHENOBARBITONE, Method: PREINCUBATION): inactive; negative
- mutagenic call (Test System: AMES SALMONELLA TYPHIMURIUM, Strain/Indicator: TA100, Metabolic Activation: S-9, Method: STANDARD PLATE): inactive; negative
- mutagenic call (Test System: AMES SALMONELLA TYPHIMURIUM, Strain/Indicator: TA102, Metabolic Activation: NONE, Method: PREINCUBATION): inactive; negative
- mutagenic call (Test System: AMES SALMONELLA TYPHIMURIUM, Strain/Indicator: TA102, Metabolic Activation: NONE, Method: STANDARD PLATE): inactive; negative
- mutagenic call (Test System: AMES SALMONELLA TYPHIMURIUM, Strain/Indicator: TA102, Metabolic Activation: RAT, LIVER, S-9, PHENOBARBITAL AND BETA-NAPHTHOFLAVONE, Method: PREINCUBATION): inactive; negative
- mutagenic call (Test System: AMES SALMONELLA TYPHIMURIUM, Strain/Indicator: TA102, Metabolic Activation: RAT, LIVER, S-9, PHENOBARBITAL AND BETA-NAPHTHOFLAVONE, Method: STANDARD PLATE): inactive; negative
- mutagenic call (Test System: AMES SALMONELLA TYPHIMURIUM, Strain/Indicator: TA1535, Metabolic Activation: HAMSTER, LIVER, S-9, AROCLOR 1254 (10%), Method: PREINCUBATION): inactive; negative
- mutagenic call (Test System: AMES SALMONELLA TYPHIMURIUM, Strain/Indicator: TA1535, Metabolic Activation: NONE, Method: PREINCUBATION): inactive; negative
- mutagenic call (Test System: AMES SALMONELLA TYPHIMURIUM, Strain/Indicator: TA1535, Metabolic Activation: PLANT, HOMOGENATE, S-14, Method: STANDARD PLATE): inactive; negative
- mutagenic call (Test System: AMES SALMONELLA TYPHIMURIUM, Strain/Indicator: TA1535, Metabolic Activation: RAT, LIVER, S-9, AROCLOR 1254 (10%), Method: PREINCUBATION): inactive; negative
- mutagenic call (Test System: AMES SALMONELLA TYPHIMURIUM, Strain/Indicator: TA1535, Metabolic Activation: RAT, LIVER, S-9, AROCLOR 1254, Method: STANDARD PLATE): inactive; negative
- mutagenic call (Test System: AMES SALMONELLA TYPHIMURIUM, Strain/Indicator: TA1535, Metabolic Activation: RAT, LIVER, S-9, PHENOBARBITAL AND BETA-NAPHTHOFLAVONE, Method: PREINCUBATION): inactive; negative
- mutagenic call (Test System: AMES SALMONELLA TYPHIMURIUM, Strain/Indicator: TA1535, Metabolic Activation: RAT, LIVER, S-9, PHENOBARBITAL AND BETA-NAPHTHOFLAVONE, Method: STANDARD PLATE): inactive; negative
- mutagenic call (Test System: AMES SALMONELLA TYPHIMURIUM, Strain/Indicator: TA1535, Metabolic Activation: S-9, Method: STANDARD PLATE): inactive; negative
- mutagenic call (Test System: AMES SALMONELLA TYPHIMURIUM, Strain/Indicator: TA1537, Metabolic Activation: HAMSTER, LIVER, S-9, AROCLOR 1254 (10%), Method: PREINCUBATION): active; positive
- mutagenic call (Test System: AMES SALMONELLA TYPHIMURIUM, Strain/Indicator: TA1537, Metabolic Activation: NONE, Method: PREINCUBATION): inactive; negative
- mutagenic call (Test System: AMES SALMONELLA TYPHIMURIUM, Strain/Indicator: TA1537, Metabolic Activation: RAT, LIVER, S-9, AROCLOR 1254 (10%), Method: PREINCUBATION): active; positive
- mutagenic call (Test System: AMES SALMONELLA TYPHIMURIUM, Strain/Indicator: TA1537, Metabolic Activation: RAT, LIVER, S-9, AROCLOR 1254, Method: STANDARD PLATE): inactive; negative
- mutagenic call (Test System: AMES SALMONELLA TYPHIMURIUM, Strain/Indicator: TA1537, Metabolic Activation: RAT, LIVER, S-9, PHENOBARBITAL AND BETA-NAPHTHOFLAVONE, Method: PREINCUBATION): active; positive
- mutagenic call (Test System: AMES SALMONELLA TYPHIMURIUM, Strain/Indicator: TA1537, Metabolic Activation: RAT, LIVER, S-9, PHENOBARBITAL AND BETA-NAPHTHOFLAVONE, Method: STANDARD PLATE): inactive; negative
- mutagenic call (Test System: AMES SALMONELLA TYPHIMURIUM, Strain/Indicator: TA1538, Metabolic Activation: NONE, Method: PREINCUBATION): inactive; negative
- mutagenic call (Test System: AMES SALMONELLA TYPHIMURIUM, Strain/Indicator: TA1538, Metabolic Activation: NONE, Method: STANDARD PLATE): inactive; negative
- mutagenic call (Test System: AMES SALMONELLA TYPHIMURIUM, Strain/Indicator: TA1538, Metabolic Activation: RAT, LIVER, S-9, AROCLOR 1254, Method: STANDARD PLATE): inactive; negative
- mutagenic call (Test System: AMES SALMONELLA TYPHIMURIUM, Strain/Indicator: TA1538, Metabolic Activation: RAT, LIVER, S-9, PHENOBARBITAL AND BETA-NAPHTHOFLAVONE, Method: PREINCUBATION): active; positive
- mutagenic call (Test System: AMES SALMONELLA TYPHIMURIUM, Strain/Indicator: TA1538, Metabolic Activation: RAT, LIVER, S-9, PHENOBARBITAL AND BETA-NAPHTHOFLAVONE, Method: STANDARD PLATE): active; positive
- mutagenic call (Test System: Mouse lymphoma, Strain/Indicator: L5178Y (tk+/tk-)/Trifluorothymidine, Metabolic Activation: None, Method: Microtiter): active; positive
